Experimental findings from PubChem BioAssay AID216 (DTP/NCI, 2004) are described below.

Structures are written as SMILES. Several values for one entry are separate records, joined by “and”; a condition that tells them apart may be missing. Equal values may be shown once. Toxic doses and inconclusive results are not listed.

This experiment relates to BDF1 mice, P288 leukemia ip, survival T/C. Briefly: NCI In Vivo Anticancer Drug Screen. Data for tumor model P288 Lymphocytic Leukemia (intraperitoneal) in B6D2F1 (BDF1) mice. Particulars: endpoint: survival time, mean or median, higher = longer survival. How it is done: The antitumor activity of compounds was measured in mice bearing transplantable tumors. Survival or tumor size were measured and the results are expressed as the measurement made in the treated group (T) divided by the measurement made in the vehicle treated control group (C). The tumor model used in this assay is P288 Lymphocytic Leukemia (intraperitoneal) in B6D2F1 (BDF1) mice

Where [1] appears, read: dose: 31.0 mg/kg/injection, schedule: Q01DX Z (sc), vehicle: steriod suspending solution.
Where [2] appears, read: dose: 125.0 mg/kg/injection, schedule: Q01DX Z (sc), vehicle: steriod suspending solution.
[3] abbreviates: dose: 250.0 mg/kg/injection, schedule: Q01DX Z (sc), vehicle: steriod suspending solution.
[4] abbreviates: dose: 25.0 mg/kg/injection, schedule: Q01DX010 (ip), vehicle: saline.
The mark [5] stands for this setting: dose: 50.0 mg/kg/injection, schedule: Q01DX010 (ip), vehicle: saline.
Where [6] appears, read: dose: 10.0 mg/kg/injection, schedule: Q01DX010 (ip), vehicle: saline.
The mark [7] stands for this setting: dose: 20.0 mg/kg/injection, schedule: Q01DX010 (ip), vehicle: saline.
Setting [8] is: dose: 40.0 mg/kg/injection, schedule: Q01DX010 (ip), vehicle: saline.
The mark [9] stands for this setting: dose: 12.5 mg/kg/injection, schedule: Q01DX010 (sc), vehicle: steriod suspending solution.
The mark [10] stands for this setting: dose: 25.0 mg/kg/injection, schedule: Q01DX010 (sc), vehicle: steriod suspending solution.
[11] abbreviates: dose: 50.0 mg/kg/injection, schedule: Q01DX010 (sc), vehicle: steriod suspending solution.
Setting [12] is: dose: 100.0 mg/kg/injection, schedule: Q01DX010 (sc), vehicle: steriod suspending solution.
Setting [13] is: dose: 200.0 mg/kg/injection, schedule: Q01DX010 (ip), vehicle: saline.
Where [14] appears, read: dose: 400.0 mg/kg/injection, schedule: Q01DX010 (ip), vehicle: saline.

Turning to `CC[C@@H](c1ccc(O)cc1)[C@@H](CC)c1ccc(O)cc1`, the T/C reads like this: under setting [1], 98 % of control; (dose: 62.5 mg/kg/injection, schedule: Q01DX Z (sc), vehicle: steriod suspending solution) 98 % of control; under setting [2], 115 % of control and 97 % of control and 100 % of control; under setting [3], 93 % of control and 98 % of control; (dose: 500.0 mg/kg/injection, schedule: Q01DX Z (sc), vehicle: steriod suspending solution) 107 % of control and 95 % of control; (dose: 1000.0 mg/kg/injection, schedule: Q01DX Z (sc), vehicle: steriod suspending solution) 93 % of control.

As for `COc1cc2c(c(OC)c1OC)-c1ccc(N)c(=O)cc1[C@@H](NC(C)=O)CC2`, the T/C reads like this: (dose: 0.5 mg/kg/injection, schedule: Q01DX010 (ip), vehicle: saline) 157 % of control; (dose: 1.0 mg/kg/injection, schedule: Q01DX010 (ip), vehicle: saline) 164 % of control and 214 % of control; (dose: 2.0 mg/kg/injection, schedule: Q01DX010 (ip), vehicle: saline) 176 % of control and 242 % of control; (dose: 4.0 mg/kg/injection, schedule: Q01DX010 (ip), vehicle: saline) 100 % of control.

With `O=NN(CCCl)C(=O)NCCCl`, the T/C runs as follows: (dose: 1.0 mg/kg/injection, schedule: Q01DX Z (ip), vehicle: saline) 121 % of control; (dose: 2.0 mg/kg/injection, schedule: Q01DX Z (ip), vehicle: saline) 117 % of control; (dose: 6.25 mg/kg/injection, schedule: Q01DX010 (ip), vehicle: saline) 193 % of control and 428 % of control; (dose: 12.5 mg/kg/injection, schedule: Q01DX010 (ip), vehicle: saline) 150 % of control and 192 % of control; (dose: 16.0 mg/kg/injection, schedule: Q01DX Z (ip), vehicle: saline) 203 % of control; under setting [4], 106 % of control and 121 % of control. In addition, the T/C runs as follows: (dose: 32.0 mg/kg/injection, schedule: Q01DX Z (ip), vehicle: saline) 263 % of control; under setting [5], 87 % of control; (dose: 64.0 mg/kg/injection, schedule: Q01DX Z (ip), vehicle: saline) 101 % of control.

For the compound `CN(C)c1ccc(/C=C/c2ccnc3ccccc23)cc1`, the T/C is 117 % of control (dose: 0.2 mg/kg/injection, schedule: Q01DX Z (ip), vehicle: water); 98 % of control (dose: 0.8 mg/kg/injection, schedule: Q01DX Z (ip), vehicle: water); 92 % of control (dose: 1.6 mg/kg/injection, schedule: Q01DX Z (ip), vehicle: water); 91 % of control (dose: 3.1 mg/kg/injection, schedule: Q01DX Z (ip), vehicle: water); 88 % of control (dose: 5.0 mg/kg/injection, schedule: Q01DX010 (ip), vehicle: saline); 108 % of control (dose: 6.25 mg/kg/injection, schedule: Q01DX Z (ip), vehicle: carboxymethylcellulose (CMC)). In addition, the T/C reads like this: (dose: 6.3 mg/kg/injection, schedule: Q01DX Z (ip), vehicle: water) 87 % of control; under setting [6], 88 % of control and 90 % of control; (dose: 12.5 mg/kg/injection, schedule: Q01DX Z (ip), vehicle: carboxymethylcellulose (CMC)) 108 % of control; under setting [7], 88 % of control; (dose: 25.0 mg/kg/injection, schedule: Q01DX Z (ip), vehicle: carboxymethylcellulose (CMC)) 114 % of control; under setting [8], 88 % of control and 90 % of control. Also, the T/C (dose: 50.0 mg/kg/injection, schedule: Q01DX Z (ip), vehicle: carboxymethylcellulose (CMC)) was 111 % of control.

For `CC(=O)O[C@]1(C(C)=O)CC[C@H]2[C@@H]3C[C@H](C)C4=CC(=O)C=C[C@]4(C)[C@@]3(F)[C@@H](O)C[C@@]21C`, the T/C was 95 % of control (dose: 2.5 mg/kg/injection, schedule: Q01DX Z (sc), vehicle: steriod suspending solution); 97 % of control (dose: 5.0 mg/kg/injection, schedule: Q01DX Z (sc), vehicle: steriod suspending solution); 101 % of control (dose: 10.0 mg/kg/injection, schedule: Q01DX Z (sc), vehicle: steriod suspending solution); 100 % of control under setting [9]; 107 % of control (dose: 20.0 mg/kg/injection, schedule: Q01DX Z (sc), vehicle: steriod suspending solution); 106 % of control under setting [10]. The T/C (dose: 40.0 mg/kg/injection, schedule: Q01DX Z (sc), vehicle: steriod suspending solution) was 118 % of control; the T/C under setting [11] was 112 % of control; the T/C (dose: 80.0 mg/kg/injection, schedule: Q01DX Z (sc), vehicle: steriod suspending solution) was 100 % of control; the T/C under setting [12] is 93 % of control; the T/C (dose: 160.0 mg/kg/injection, schedule: Q01DX Z (sc), vehicle: steriod suspending solution) is 90 % of control.

As for `C[C@@H]1C[C@@H]([C@H](O)CC2CC(=O)NC(=O)C2)C(=O)[C@@H](C)C1`, the T/C is 94 % of control under setting [6]; 94 % of control (dose: 12.5 mg/kg/injection, schedule: Q01DX Z (ip), vehicle: water); 94 % of control under setting [7]; 98 % of control (dose: 25.0 mg/kg/injection, schedule: Q01DX Z (ip), vehicle: water); 105 % of control under setting [8].

As for `O=c1cnn(C2OC(CO)C(O)C2O)c(=O)[nH]1` (configuration not stated), the T/C was 101 % of control (dose: 15.62 mg/kg/injection, schedule: Q01DX Z (ip), vehicle: water); 101 % of control (dose: 31.25 mg/kg/injection, schedule: Q01DX Z (ip), vehicle: water); 104 % of control (dose: 62.5 mg/kg/injection, schedule: Q01DX Z (ip), vehicle: water); 113 % of control and 95 % of control (dose: 125.0 mg/kg/injection, schedule: Q01DX Z (ip), vehicle: water); 111 % of control and 112 % of control under setting [13]; 103 % of control and 123 % of control (dose: 250.0 mg/kg/injection, schedule: Q01DX Z (ip), vehicle: water). For the same compound, the T/C is 118 % of control under setting [14]; 94 % of control (dose: 500.0 mg/kg/injection, schedule: Q01DX Z (ip), vehicle: water); 122 % of control (dose: 800.0 mg/kg/injection, schedule: Q01DX010 (ip), vehicle: saline); 103 % of control (dose: 1000.0 mg/kg/injection, schedule: Q01DX Z (ip), vehicle: water); 112 % of control and 94 % of control (dose: 1600.0 mg/kg/injection, schedule: Q01DX010 (ip), vehicle: saline).

For the compound `CC/C(=C(/CC)c1ccc(O)cc1)c1ccc(O)cc1`, the T/C is, setting by setting: (dose: 1.0 mg/kg/injection, schedule: Q01DX Z (sc), vehicle: steriod suspending solution) 100 % of control; (dose: 2.0 mg/kg/injection, schedule: Q01DX Z (sc), vehicle: steriod suspending solution) 103 % of control; (dose: 4.0 mg/kg/injection, schedule: Q01DX Z (sc), vehicle: steriod suspending solution) 97 % of control; (dose: 8.0 mg/kg/injection, schedule: Q01DX Z (sc), vehicle: steriod suspending solution) 118 % of control; under setting [9], 100 % of control; (dose: 16.0 mg/kg/injection, schedule: Q01DX Z (sc), vehicle: steriod suspending solution) 118 % of control. Also, the T/C reads like this: under setting [10], 106 % of control; under setting [1], 103 % of control; under setting [11], 112 % of control and 121 % of control; (dose: 62.0 mg/kg/injection, schedule: Q01DX Z (sc), vehicle: steriod suspending solution) 97 % of control; under setting [12], 114 % of control and 100 % of control; under setting [2], 91 % of control. For the same compound, under setting [3], the T/C was 101 % of control.

As to `Cc1cc2nc3c(=O)[nH]c(=O)nc-3n(CC(O)C(O)C(O)C(O)CO)c2cc1C` (configuration not stated), the T/C was 100 % of control under setting [4]; 118 % of control under setting [5]; 106 % of control and 94 % of control (dose: 100.0 mg/kg/injection, schedule: Q01DX010 (ip), vehicle: saline); 106 % of control and 94 % of control under setting [13]; 112 % of control under setting [14].
